According to patent publication US20150307938A1, “METHOD TO IDENTIFY A NOVEL CLASS OF IMMUNOLOGIC ADJUVANTS” (Lancell, L.L.C., priority 2011, published 2015):

Test system: skin
Experiment: Affymetrix microarray of skin, DBP-4 hr and analogs vs. untreated; gene selection by log-2 fold change, Wilcoxon, Kendall tau (Tables 8, 9)
Format: in vivo, mouse
Conditions: for Kendall: Kendall tau coefficient
[1] = DBP-4 hr vs. untreated, rank-sum p-value
[2] = Kendall tau, expression vs. output

CCCCOC(=O)c1ccccc1C(=O)OCCCC [DBP, dibutylphthalate]
Gm10229 XM_003086003_at Wilcoxon [1]: Yes
Gsdmc NM_031378_at Wilcoxon [1]: Yes
H19 NR_001592_at Wilcoxon [1]: Yes
Il1rl1 NM_001025602_at Wilcoxon [1]: No
Inpp5a NM_001127363_at Wilcoxon [1]: No
Inpp5d NM_001110192_at Wilcoxon [1]: No
Inpp5d NM_001110193_at Wilcoxon [1]: No
Klhdc5 NM_001081237_at Wilcoxon [1]: No
Krt33a NM_027983_at Wilcoxon [1]: Yes
Krt34 NM_027563_at Wilcoxon [1]: Yes
Krtap1-5 NM_027157_at Wilcoxon [1]: Yes
Krtap3-1 NM_023511_at Wilcoxon [1]: Yes
Krtap3-3 NM_025524_at Wilcoxon [1]: Yes
Krtap4-2 NM_026807_at Wilcoxon [1]: Yes
Krtap5-2 NM_027844_at Wilcoxon [1]: Yes
Krtap9-3 NM_029351_at Wilcoxon [1]: Yes
Krtap13-1 NM_183189_at Wilcoxon [1]: Yes
Krtap16-1 NM_130870_at Wilcoxon [1]: Yes
Krtap16-5 NM_130857_at Wilcoxon [1]: Yes
Krtap16-7 NM_028621_at Wilcoxon [1]: Yes
Krtap16-8 NM_130856_at Wilcoxon [1]: Yes
Krtap16-9 NM_130876_at Wilcoxon [1]: Yes
Krtap16-10 NM_183296_at Wilcoxon [1]: Yes
Krtap28-13 XM_896507_at Wilcoxon [1]: Yes
Krtap28-13 XM_919110_at Wilcoxon [1]: Yes
LOC100503254 XM_003085741_at Wilcoxon [1]: Yes
Lmod2 NM_053098_at Wilcoxon [1]: Yes
Lyz2 NM_017372_at Wilcoxon [1]: Yes
Mfhas1 NM_001081279_at Wilcoxon [1]: No
Mfsd4 NM_001114662_at Wilcoxon [1]: No
Mia1 NM_019394_at Wilcoxon [1]: Yes
Mrpl44 NM_001081210_at Wilcoxon [1]: No
Ms4a6d NM_026835_at Wilcoxon [1]: Yes
Mylpf NM_016754_at Wilcoxon [1]: Yes
Myoz2 NM_021503_at Wilcoxon [1]: Yes
Ncbp1 NM_001033201_at Wilcoxon [1]: No
Nolc1 NM_001039351_at Wilcoxon [1]: No
Nolc1 NM_001039352_at Wilcoxon [1]: No
Nolc1 NM_001039353_at Wilcoxon [1]: No
Nrap NM_198059_at Wilcoxon [1]: Yes
Nusap1 NM_133851_at Wilcoxon [1]: Yes
Ogfrl1 NM_001081079_at Wilcoxon [1]: No
Olr1 NM_138648_at Wilcoxon [1]: Yes
Oxr1 NM_001130163_at Wilcoxon [1]: No
Oxr1 NM_001130164_at Wilcoxon [1]: No
Oxr1 NM_001130165_at Wilcoxon [1]: No
Oxr1 NM_001130166_at Wilcoxon [1]: No
Pgam2 NM_018870_at Wilcoxon [1]: Yes
Pigyl NM_001082532_at Wilcoxon [1]: No
Pparg NM_001127330_at Wilcoxon [1]: No
Ppih NM_001110129_at Wilcoxon [1]: No
Prg4 NM_021400_at Wilcoxon [1]: Yes
Retnla NM_020509_at Wilcoxon [1]: Yes
Rffl NM_001007465_at Wilcoxon [1]: No
Rn18s NR_003278_at Wilcoxon [1]: Yes
Rpl3l NM_025425_at Wilcoxon [1]: Yes
Slc39a14 NM_001135151_at Wilcoxon [1]: No
Sln NM_025540_at Wilcoxon [1]: Yes
Smpx NM_025357_at Wilcoxon [1]: Yes
Tnfrsf9 NM_001077508_at Wilcoxon [1]: No
Tnfrsf9 NM_001077509_at Wilcoxon [1]: No
Tnni1 NM_021467_at Wilcoxon [1]: Yes
Trdn NM_029726_at Wilcoxon [1]: Yes
Trf NM_133977_at Wilcoxon [1]: Yes
Trp63 NM_001127259_at Wilcoxon [1]: No
Trp63 NM_001127260_at Wilcoxon [1]: No
Trp63 NM_001127262_at Wilcoxon [1]: No
Trp63 NM_001127264_at Wilcoxon [1]: No
Ttn NM_028004_at Wilcoxon [1]: Yes
Wbp1 NM_001083922_at Wilcoxon [1]: No
Wbp1 NM_001083923_at Wilcoxon [1]: No
Wfdc2 NM_026323_at Wilcoxon [1]: Yes
Zfp68 NM_001044747_at Wilcoxon [1]: No
Zfp187 NM_001013786_at Wilcoxon [1]: No
Zfp518b NM_001081144_at Wilcoxon [1]: No
Zfp943 NM_001025373_at Wilcoxon [1]: No
Wilcoxon (Egr1 NM_007913_at, DBP-4 hr vs. untreated): Yes
Kendall (Egr1 NM_007913_at): No
Wilcoxon (Ehf NM_007914_at, DBP-4 hr vs. untreated): Yes
Kendall (Ehf NM_007914_at): No
Wilcoxon (Ereg NM_007950_at, DBP-4 hr vs. untreated): Yes
Kendall (Ereg NM_007950_at): No
Wilcoxon (Fgfbp1 NM_008009_at, DBP-4 hr vs. untreated): No
Kendall (Fgfbp1 NM_008009_at): No
Wilcoxon (Gch1 NM_008102_at, DBP-4 hr vs. untreated): Yes
Kendall (Gch1 NM_008102_at): No
Wilcoxon (Gjb2 NM_008125_at, DBP-4 hr vs. untreated): Yes
Kendall (Gjb2 NM_008125_at): No
Wilcoxon (Gpr65 NM_008152_at, DBP-4 hr vs. untreated): Yes
Kendall (Gpr65 NM_008152_at): No
1110032A04Rik NM_133675_at Kendall [2]: No
2510002D24Rik NM_001033164_at Kendall [2]: Yes
2510009E07Rik NM_001001881_at Kendall [2]: Yes
2610528A11Rik XR_105647_at Kendall [2]: No
1500015010Rik NM_024283_at Kendall [2]: No
3110079015Rik NM_028473_at Kendall [2]: No
A2m NM_175628_at Kendall [2]: No
AY026312 NM_133359_at Kendall [2]: No
Actn2 NM_033268_at Kendall [2]: No
Akr1c14 NM_134072_at Kendall [2]: No
Aldh7a1 NM_001127338_at Kendall [2]: Yes
Aox4 NM_023631_at Kendall [2]: No
Asb5 NM_029569_at Kendall [2]: No
Atp2a2 NM_001110140_at Kendall [2]: Yes
Atp13a3 NM_001128094_at Kendall [2]: Yes
Atp13a3 NM_001128096_at Kendall [2]: Yes
Bcr NM_001081412_at Kendall [2]: Yes
Camk2g NM_001039138_at Kendall [2]: Yes
Camk2g NM_001039139_at Kendall [2]: Yes
Ccl8 NM_021443_at Kendall [2]: No
Ccl24 NM_019577_at Kendall [2]: No
Cd209d NM_130904_at Kendall [2]: No
Ckmt2 NM_198415_at Kendall [2]: No
Cldn8 NM_018778_at Kendall [2]: No
Clec4n NM_020001_at Kendall [2]: No
Cmya5 NM_023821_at Kendall [2]: No
Comp NM_016685_at Kendall [2]: No
Corin NM_016869_at Kendall [2]: No
Crispld1 NM_031402_at Kendall [2]: No
Cxcl10 NM_021274_at Kendall [2]: No
Cxcr6 NM_030712_at Kendall [2]: No
Cyth1 NM_001112699_at Kendall [2]: Yes
Cyth1 NM_001112700_at Kendall [2]: Yes
Dbp NM_016974_at Kendall [2]: No
Deptor NM_001037937_at Kendall [2]: Yes
Dlgap4 NM_001042487_at Kendall [2]: Yes
Dlgap4 NM_001042488_at Kendall [2]: Yes
Ear5 NM_019398_at Kendall [2]: No
Fam134b NM_001034851_at Kendall [2]: Yes
Gcdh NM_001044744_at Kendall [2]: Yes
Gm10228 XM_001474297_at Kendall [2]: No
Gm10228 XM_003086004_at Kendall [2]: No
Gm10229 XM_003086003_at Kendall [2]: No
Gsdmc NM_031378_at Kendall [2]: No
H19 NR_001592_at Kendall [2]: No
Il1rl1 NM_001025602_at Kendall [2]: Yes
Inpp5a NM_001127363_at Kendall [2]: Yes
Inpp5d NM_001110192_at Kendall [2]: Yes
Inpp5d NM_001110193_at Kendall [2]: Yes
Klhdc5 NM_001081237_at Kendall [2]: Yes
Krt33a NM_027983_at Kendall [2]: No
Krt34 NM_027563_at Kendall [2]: No
Krtap1-5 NM_027157_at Kendall [2]: No
Krtap3-1 NM_023511_at Kendall [2]: No
Krtap3-3 NM_025524_at Kendall [2]: No
Krtap4-2 NM_026807_at Kendall [2]: No
Krtap5-2 NM_027844_at Kendall [2]: No
Krtap9-3 NM_029351_at Kendall [2]: No
Krtap13-1 NM_183189_at Kendall [2]: No
Krtap16-1 NM_130870_at Kendall [2]: No
Krtap16-5 NM_130857_at Kendall [2]: No
Krtap16-7 NM_028621_at Kendall [2]: No
Krtap16-8 NM_130856_at Kendall [2]: No
Krtap16-9 NM_130876_at Kendall [2]: No
Krtap16-10 NM_183296_at Kendall [2]: No
Krtap28-13 XM_896507_at Kendall [2]: No
Krtap28-13 XM_919110_at Kendall [2]: No
LOC100503254 XM_003085741_at Kendall [2]: No
Lmod2 NM_053098_at Kendall [2]: No
Lyz2 NM_017372_at Kendall [2]: No
Mfhas1 NM_001081279_at Kendall [2]: Yes
Mfsd4 NM_001114662_at Kendall [2]: Yes
Mia1 NM_019394_at Kendall [2]: No
Mrpl44 NM_001081210_at Kendall [2]: Yes
Ms4a6d NM_026835_at Kendall [2]: No
Mylpf NM_016754_at Kendall [2]: No
Myoz2 NM_021503_at Kendall [2]: No
Ncbp1 NM_001033201_at Kendall [2]: Yes
Nolc1 NM_001039351_at Kendall [2]: Yes
Nolc1 NM_001039352_at Kendall [2]: Yes
Nolc1 NM_001039353_at Kendall [2]: Yes
Nrap NM_198059_at Kendall [2]: No
Nusap1 NM_133851_at Kendall [2]: No
Ogfrl1 NM_001081079_at Kendall [2]: Yes
Olr1 NM_138648_at Kendall [2]: No
Oxr1 NM_001130163_at Kendall [2]: Yes
Oxr1 NM_001130164_at Kendall [2]: Yes
Oxr1 NM_001130165_at Kendall [2]: Yes
